The text below walks through data of patent publication US10183011B2, “Anti-depression compounds” (Board of Regents of the University of Texas System, priority 2009, dated 2019).

Entries after “also recorded” stand apart in the source; their conditions may differ.

For series [1], the system named is cultured primary cortical neurons. The experiment in a line: Mitochondrial membrane potential (TMRM) after A23187 in cultured primary cortical neurons. The note with it: rat E14 cortical neurons. It counts as cell-based.
Text: (§1) FIG. 23: Example 45 Compound Preserves Mitochondrial Membrane Potential in Cultured Primary Cortical Neurons. Cortical neurons cultures from rats on embryonic day 14 were loaded with tetramethylrhodamine methyl ester (TMRM) dye after 6 days of maturation. […] The remaining panels are from cells that were exposed to the calcium ionophore A23187 at time zero. With vehicle-alone, cortical neuron mitochondrial membrane potential was rapidly lost after exposure to the ionophore. […] Results shown are representative of 10 fields analyzed in each of 2 experimental runs for all conditions.
as §1, with “It was also examined whether” for “FIG. 23:”, “preserves mitochondrial membrane potential” for “Preserves Mitochondrial Membrane Potential”, “cultured primary cortical neurons (FIG. 23).” for “Cultured Primary Cortical Neurons.”

Series [2] deals with dentate gyrus of NPAS3-deficient mice. The experiment in a line: NPAS3-deficient mice: neurogenesis, apoptosis, morphology and electrophysiology of the dentate gyrus. Type of series: in vivo, mouse (npas3−/−). As to the method: FIG. 14: Example 45 Compound has pro-neurogenic or neuroprotective efficacy in the dentate gyrus of NPAS3-deficient animals. Six 12 week old npas3^−/− mice were orally administered vehicle or Example 45 Compound (20 mg/kg/d) for 12 days, and also injected daily with BrdU (50 mg/kg). At the end of day 12, mice were sacrificed and tissue was stained for BrdU and doublecortin (DCX).
Apoptosis in NPAS3-deficient animals was inhibited by treatment with Example 45 Compound (20 mg/kg/d, p.o., for 12 days), whereas analogous treatment with vehicle alone had no effect. Images shown are representative of 10-12 sections evaluated per animal, with 3-5 […] male NPAS3-deficient mice per group.
Armed with these genotype- and region-specific deficits in both neuron morphology and electrophysiological activity, whether prolonged administration of Example 45 Compound might favorably repair either deficit in NPAS3-deficient animals was tested. […] Following oral gavage of pregnant female mice, 14 day embryos were recovered, dissected and processed by acetonitrile:water extraction so that Example 45 Compound levels could be measured in the embryonic brain. Daily administration of 20 mg/kg of Example 45 Compound to pregnant females yielded appreciable levels of the compound in the brain tissue of developing embryos. It was similarly observed that oral administration of the compound to lactating females led to delivery of Example 45 Compound to the brain tissue of weanling pups. […] Finally, it was observed that daily IP administration of Example 45 Compound to weaned pups at 20 mg/kg was sufficient to yield brain levels of Example 45 Compound at or above the level required to enhance adult neurogenesis.
Female mice heterozygous at the NPAS3 locus were mated to heterozygous males. Two weeks post-mating, females were given a daily oral gavage of either 20 mg/kg of Example 45 Compound or vehicle-only formula. Dosing was continued throughout the last trimester of pregnancy, as well as the two week post-natal period of lactation. Following weaning, pups were given a daily IP dose of either 20 mg/kg Example 45 Compound or vehicle control. At about 7 weeks of age, mice were switched to oral gavage delivery of the same dose of Example 45 Compound. When mice were 3 months of age they were sacrificed and brain tissue was dissected and subjected to either Golgi-Cox staining or electrophysiological recording. […] The corresponding electrophysiological deficit in CA1 region of the hippocampus, however, was not affected (FIG. 13B), underscoring the specificity of Example 45 Compound to improving functioning of the dentate gyrus in this animal model.
Recognizing that the reduced thickness of the granular layer of the dentate gyrus in NPAS3-deficient animals could be attributed to elevated levels of apoptosis of newborn hippocampal neural precursor cells, the effect of Example 45 Compound treatment on apoptosis in the hippocampus of NPAS3-deficient animals was examined through immunohistochemical staining of cleaved caspase 3 (CCSP3). […] It is thereby proposed that Example 45 Compound facilitated repair of the granular layer of the dentate gyrus in NPAS3-deficient mice by ameliorating a genotype-specific exacerbation of programmed cell death.

The test system of another series is histamine receptor. The experiment in a line: Histamine receptor binding.
The next series concerns the target hERG channel (Homo sapiens, UniProt Q12809). The experiment in a line: hERG channel binding.
Series [3] concerns hypothalamic neural precursor cells. Nature of the series: Hypothalamic neurogenesis (BrdU). It counts as in vivo, mouse (C57BL/6). The following applies: 10 mg/kg twice daily i.p. Here is the method:
FIG. 27. Example 45 Compound (P7C3) Augments Hypothalamic Neurogenesis. Administration of P7C3 for a one month period of time augments proliferation of hypothalamic neural precursor cells (shown in red) in the arcuate nucleus (ARC), dorsomedial hypothalamus (DMH) and ventralmedial hypothalamus (VMH). Micrographs shown are representative of staining from every third section throughout the hypothalamus in 4-6 mice for each treatment group.
It was evaluated whether P7C3 might augment hypothalamic neurogenesis by administering either vehicle or P7C3 (10 mg/kg twice daily, i.p.) to nine week old male C57BL/6 mice, starting two days before implantation of 7 day Alzet osmotic minipumps (model 1007d) loaded with BrdU (1 mg/kg). Pumps were connected to a cannula that delivered BrdU at a constant rate into the left lateral ventricle for the seven day period, during which time animals continued to receive either vehicle or P7C3. Pumps were surgically removed at the conclusion of their 7 day operating period, and mice were allowed to survive for 4 more weeks, during which time they continued to receive either vehicle or P7C3. At the end of the 4 week period, mice were deeply anesthetized with intraperitoneal (i.p.) injection of mouse anesthetic cocktail and transcardially perfused with 4% paraformaldehyde (PFA) in phosphate buffered saline (pH 7.4). […]

Sequence of hERG channel (Q12809 whole entry): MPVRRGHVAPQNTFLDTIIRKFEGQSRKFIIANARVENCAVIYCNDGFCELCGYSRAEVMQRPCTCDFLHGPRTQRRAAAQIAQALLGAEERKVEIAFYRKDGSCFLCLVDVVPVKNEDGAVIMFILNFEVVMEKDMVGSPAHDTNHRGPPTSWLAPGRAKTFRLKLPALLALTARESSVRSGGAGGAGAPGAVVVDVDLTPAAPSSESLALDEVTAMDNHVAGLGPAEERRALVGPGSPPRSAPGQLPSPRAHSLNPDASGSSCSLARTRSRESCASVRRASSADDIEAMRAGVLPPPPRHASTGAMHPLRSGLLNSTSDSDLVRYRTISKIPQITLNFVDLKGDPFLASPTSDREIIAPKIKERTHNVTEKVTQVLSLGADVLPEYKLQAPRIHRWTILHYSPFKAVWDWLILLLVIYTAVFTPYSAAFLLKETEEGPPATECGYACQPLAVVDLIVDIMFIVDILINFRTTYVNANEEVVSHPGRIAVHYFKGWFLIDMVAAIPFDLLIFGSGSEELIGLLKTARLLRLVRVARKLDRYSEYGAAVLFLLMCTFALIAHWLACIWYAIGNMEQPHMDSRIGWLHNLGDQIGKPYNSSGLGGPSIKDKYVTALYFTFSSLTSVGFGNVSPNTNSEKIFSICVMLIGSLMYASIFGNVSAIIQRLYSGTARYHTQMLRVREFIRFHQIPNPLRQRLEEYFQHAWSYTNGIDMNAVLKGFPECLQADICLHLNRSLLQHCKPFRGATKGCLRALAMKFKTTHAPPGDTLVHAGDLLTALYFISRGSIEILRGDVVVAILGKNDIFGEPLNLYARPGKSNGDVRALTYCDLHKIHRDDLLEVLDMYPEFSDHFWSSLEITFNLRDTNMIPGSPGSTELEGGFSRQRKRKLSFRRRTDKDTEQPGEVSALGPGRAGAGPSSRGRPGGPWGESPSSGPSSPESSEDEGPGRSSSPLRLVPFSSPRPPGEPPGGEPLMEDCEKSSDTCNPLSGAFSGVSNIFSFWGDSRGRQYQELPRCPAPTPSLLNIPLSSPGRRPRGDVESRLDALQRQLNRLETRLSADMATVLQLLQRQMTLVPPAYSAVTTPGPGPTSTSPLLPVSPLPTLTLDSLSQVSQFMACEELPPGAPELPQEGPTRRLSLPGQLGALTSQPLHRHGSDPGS

As for `OC(CNc1ccccc1)Cn1c2ccc(Br)cc2c2cc(Br)ccc21` (centres unmarked) [Example 45 Compound], in series [1], the “dose giving full protection of mitochondrial membrane potential” value was found to be 1 mM. In addition, in series [2] (20 mg/kg daily oral to pregnant or lactating females, LC/MS), the “brain level in embryos and weanling pups” value was ≥ 1350 nM. The “thickness of hippocampal subfields” value in series [2] (20 mg/kg/d from embryonic day 14 until 3 months of age, npas3−/− mice) was “selectively increased the thickness of the dentate gyrus granular cell layer”. Besides, in series [2] (20 mg/kg/d p.o. for 12 days, NPAS3-deficient mice), the “cleaved caspase 3 (CCSP3) staining, apoptosis in the dentate gyrus” value was “significantly reduced CCSP3 staining in the dentate gyrus; also recorded: statistically significant reduction in CCSP3 staining; also recorded: inhibited”. For the same molecule, the “dendritic arborization of dentate gyrus granular neurons (Golgi-Cox)” value in series [2] (extended daily treatment 20 mg/kg/d, npas3−/− mice) is on record as “robustly repaired morphological deficits in the dendritic branching; also recorded: enhanced dendritic arborization”. Besides, the “synaptic responses (fEPSP) in hippocampal slices” value in series [2] (extended treatment, npas3−/− mice) is “normalized synaptic responses in the dentate gyrus but not the CA1 region”. Moreover, the “increase of neurogenesis (BrdU) in npas3−/− mice” value in series [2] (oral 20 mg/kg/d for 12 days) was “roughly 4 fold”. The “health of treated animals” value in series [2] (prolonged administration 20 mg/kg, relative to vehicle-only controls) is given as “did not affect any aspect of the health of mothers, embryos, weanlings or young adult mice”.
Take `COc1cccc(NCC(F)Cn2c3ccc(Br)cc3c3cc(Br)ccc32)c1` (centres unmarked) [Example P7C3A20, N-(3-(3,6-dibromo-9H-carbazol-9-yl)-2-fluoropropyl)-3-methoxyaniline]: the histamine receptor binding entry in the series with histamine receptor was “no hERG channel binding, histamine receptor binding”. Moreover, the hERG channel binding result on hERG channel was “no hERG channel binding”.
Turning to `OC(CNc1ccccc1)Cn1c2ccc(Br)cc2c2cc(Br)ccc21` (centres unmarked) [Example P7C3], the “hypothalamic neurogenesis (BrdU positive staining)” value in series [3] was “markedly enhances hypothalamic neurogenesis”.
